# Test results as given in patent US6180596A, “Methods of inhibiting phospholipase A2 and phospholipase A2 stimulator activities” (Wisconsin Alumni Research Foundation, priority 1998, dated 2001).
# “Also recorded” adds a separate entry of the source.
# Tested on: elastase
# Assay: Degradation of rabbit lung Annexin I to 33 kDa(BP) by elastase, with and without PMSF
# Type: biochemical
# Conditions: PMSF present in the reaction solution; concentration not given; substrate rabbit lung Annexin I
compound,measurement,value
"O=S(=O)(F)Cc1ccccc1 [PMSF, phenylmethyl sulfonyl fluoride]",inhibition of the proteolytic hydrolysis of Annexin I catalyzed by elastase,totally inhibited; also recorded: prevented Annexin I degradation
